Measured values published in patent US12325677B2, “Carboxylic acid-type lipid, and lipid particle and lipid membrane each comprising carboxylic acid-type lipid” (Toray Industries, Inc., priority 2018, dated 2025).

Experiments:
[1] = Thickness of lipid membrane from SEM observation image; assay type: physicochemical; conditions: lipid supported on fiber sheet base (hemostatic materials E1 to E4), SEM ×5,000
Description: The thickness of the lipid membrane is preferably 10 to 1,000 nm, more preferably 30 to 500 nm, and still more preferably 60 to 240 nm. The method of measuring the lipid membrane is as follows. The lipid membrane is observed with a scanning electron microscope (SEM). The thickness of five points optionally selected in the SEM observation image is measured, and the mean is regarded as the thickness of the lipid membrane.
An SEM observation image (×1,000) of the base complex before supporting a lipid is shown in FIG. 5, and SEM observation images (×1,000) of the hemostatic materials E1 to E4 are shown in FIGS. 6 to 9, respectively.

guinea pig-derived PRP = assay: Evaluation of platelet aggregation capacity of hemostatic material (in vitro), protein assay of attached platelets; assay type: cell-based; conditions: lipid supported on the base part in place of DHSG, Asp-DHSG, Glu-DHSG and AG-DHSG
Description: From the hemostatic materials D1, D2, D3 and D4, a base part (fiber sheet part) supporting DHSG, Asp-DHSG, Glu-DHSG and AG-DHSG, respectively, was taken out. To a 12-well plate, the base part (fiber sheet part) that was taken out and 1 mL of guinea pig-derived PRP (2.0×10^5/μL) prepared by the abovementioned method were added. Thereafter, ADP ([…], 100 μL) that activates platelets was added, and after allowing to stand at room temperature for 5 minutes, the mixture was washed with 1 mL of DPBS twice. Thereafter, to dissolve platelets attached to the base part (fiber sheet part), 500 μL of 0.5% Triton X was added, followed by allowing to stand at room temperature for 1 hour to obtain a platelet lysate. To a 96-well plate, […] of the platelet lysate prepared by the abovementioned method and 150 μL of PIERCE (trademark) 660 nm Protein Assay Kit were added, followed by allowing to stand for 5 minutes. By measuring absorbance at 660 nm using a microplate reader, proteins were quantitatively determined, and the determination results were used as an index of the count of platelets which were not washed away and were attached to the fiber sheet. The results in FIG. 4 are relative values when the platelet count in using the hemostatic material D1 is regarded as 1. […]

Thickness of the lipid membrane [1] [nm]	Compound	Platelets detected on the base part (fiber sheet part) as a result of washing (guinea pig-derived PRP)
124	CCCCCCCCCCCCCCCCOC(=O)CCC(NC(=O)CCC(=O)NC(CCC(=O)NC(CC(=O)O)C(=O)O)C(=O)NC(CC(=O)O)C(=O)O)C(=O)OCCCCCCCCCCCCCCCC (centres unmarked) [AG-DHSG]	–
153	CCCCCCCCCCCCCCCCOC(=O)CCC(NC(=O)CCC(=O)NC(CC(=O)O)C(=O)O)C(=O)OCCCCCCCCCCCCCCCC (centres unmarked) [Asp-DHSG]	–
131	CCCCCCCCCCCCCCCCOC(=O)CCC(NC(=O)CCC(=O)O)C(=O)OCCCCCCCCCCCCCCCC [DHSG, 1,5-Dihexadecyl-N-Succinyl-L-Glutamate, reference compound]	–
–	CCCCCCCCCCCCCCCC(=O)OC[C@H](COP(=O)([O-])OCC[N+](C)(C)C)OC(=O)CCCCCCCCCCCCCCC [DPPC, 1,2-dipalmitoyl-sn-glycero-3-phosphatidylcholine]	no platelets were detected
187	CCCCCCCCCCCCCCCCOC(=O)CCC(NC(=O)CCC(=O)NC(CCC(=O)O)C(=O)O)C(=O)OCCCCCCCCCCCCCCCC (centres unmarked) [Glu-DHSG]	–
